{"source": "paper PMC11990670", "about": "“Exploring the Volatility, Phase Transitions, and Solubility Properties of Five Halogenated Benzaldehydes” (Molecules, 2025)", "key": {"[1]": {"experiment": "Vapor pressures of crystalline and liquid phases, static method with capacitance diaphragm gauge", "assay_type": "physicochemical", "from_the_text": "A previously described and tested static apparatus was used to measure the vapor pressures of the condensed phases (both crystalline and liquid) of the five compounds studied. This installation employs MKS capacitance diaphragm absolute gauges, operating at self-regulated constant temperatures. Our lab is equipped with three pressure gauges. Gauge I, a Baratron 631A01TBEH (MKS instruments, Andover, MA, USA) (Tgauge = 423 K), measures pressures in the range of 0.5 to 1.3 × 10^2 Pa and operates within a temperature range of 253 to 413 K. Gauge II, the instrument used in this study, is a Baratron 631A11TBFP (MKS instruments, Andover, MA, USA) (Tgauge = 473 K), capable of measuring pressures from 0.5 to 1.3 × 10^3 Pa within a temperature range of 253 to 433 K and gauge III, a Baratron 631D02T8FP (MKS instruments, Andover, MA, USA) (Tgauge = 473 K), designed to measure pressures between 0.5 Pa and 2.6 × 10^2 Pa, also within a temperature range of 253 to 433 K. The temperatures of the samples were measured using a Pt100 platinum resistance thermometer, calibrated by comparison with a standard platinum resistance thermometer (SPRT: Tinsley Precision Instruments Ltd, London, England). To prevent vapor condensation, the tubing connecting the cell containing the condensed sample to the pressure gauge is maintained at a temperature higher than that of the sample but lower than that of the gauge. The uncertainty in temperature measurements is estimated to be u(T/K) = ±0.01, and the expanded uncertainties (0.95 confidence level, k = 2) in pressure measurements are given by the expression U(p/Pa) = 0.1 + 0.0050 (p/Pa) for the gauge used. Samples were thoroughly degassed before starting the vapor pressure measurements, ensuring consistent readings at specific temperatures and eliminating any residual volatile substances, including water."}, "[2]": {"experiment": "Gibbs energy of hydration and Henry's law volatility constant calculated from sublimation and solubility data", "details": "25 °C", "protocol": "(§1) The concentration was measured by absorbances at 260 nm for 4-chlorobenzaldehyde, 263 nm for 4-bromobenzaldehyde and 2,4-dichlorobenzaldehyde, 297 nm for 2,6-dichlorobenzaldehyde, and 306 nm for 2,3-dichlorobenzaldehyde, using a Cary-60 UV–vis (Agilent) spectrophotometer. X-ray diffraction (XRD) and differential scanning calorimetry of residual solids were used to identify the eventual phase transformations. The purified samples of each compound studied were used for all experimental determinations, including the solubility measurements. After reaching the equilibrium, the residual solid was dried and analyzed using both DSC and XRD. The melting properties obtained from DSC were compared with those of the original purified sample, following the same procedure for the XRD analysis. […] As an example, the supporting information includes two thermograms and two XRD patterns for 2,4-dichlorobenzaldehyde (Figures S1 and S2). […] Equation (4) was derived from Equation (5), which is widely applicable to the solubility of solids.(4) ΔhydrGm°/kJ·mol^−1=9.17−5.71·log10(Scr/mol·m^−3)−ΔcrgGm°/kJ·mol^−1 (5) S=p^°/RTexpΔcrgGm°+ΔhydrGm°/−RT\nThe standard states in Equation (5) are p° = 1 × 10^5 Pa for ΔcrgGm° , c° = 1 mol·L^−1 for ΔhydrGm° and s° = 1 mol·m^−3 for solubility. Using the experimental results of ΔhydrGm° , calculated through Equation (4), the values of Henry’s law volatility constants, KHpc, were determined in the logarithm form by Equation (6), that was adapted from Modarressi et al.."}, "[3]": {"experiment": "pH of the saturated aqueous solutions", "assay_type": "physicochemical", "details": "saturated aqueous solution of the solubility experiment", "protocol": "as §1\nAn excess amount of each compound was added to a known volume of water in triplicate. […] After stirring, the solid phase was allowed to settle for 2 h. The pH of the saturated solutions was measured using a Mettler Toledo (Greifensee, Switzerland) FiveEasy F20 pH Meter calibrated with standard aqueous solutions (pH 7.00 and 4.01 or 10.1). Those solutions were then filtered through a 0.22 μm syringe hydrophilic filter (13 mm, PTFE, Labfil, Zhejiang, China) and diluted to the required concentration. The concentration of the compounds, expressed in molarity, was measured by absorbances using a Cary-60 UV–vis spectrophotometer (Agilent Technologies, Santa Clara, CA, USA) at 298.15 K (single cell Peltier accessory, ±0.15 K). The results reported in Table 6 are averaged from at least three replicates. Calibration was performed using solutions of known concentrations of each substance in water. These solutions were prepared by adding a precise mass of the substance and a specific volume of the solvent to a flask, then mixing until the substance was fully dissolved. The absorbance of these solutions was measured, and calibration curves were created."}}, "note": "“And” between values parts separate entries of the source, which are not always exact repeats. Equal values may be shown once. Marks after values point to notes of the source that are not given here.", "data": [{"compound": "O=Cc1ccc(Cl)cc1", "note": "[4-Chlorobenzaldehyde]", "values": [{"measurement": "vapor pressure p", "setting": "[1]; crystalline phase, T = 267.45 K", "result": 0.57, "unit": "Pa"}, {"measurement": "vapor pressure p", "setting": "[1]; crystalline phase, T = 269.33 K", "result": 0.72, "unit": "Pa"}, {"measurement": "vapor pressure p", "setting": "[1]; crystalline phase, T = 271.42 K", "result": 0.93, "unit": "Pa"}, {"measurement": "vapor pressure p", "setting": "[1]; crystalline phase, T = 273.29 K", "result": 1.15, "unit": "Pa"}, {"measurement": "vapor pressure p", "setting": "[1]; crystalline phase, T = 275.39 K", "result": 1.48, "unit": "Pa"}, {"measurement": "vapor pressure p", "setting": "[1]; crystalline phase, T = 277.25 K", "result": 1.84, "unit": "Pa"}, {"measurement": "vapor pressure p", "setting": "[1]; crystalline phase, T = 279.32 K", "result": 2.33, "unit": "Pa"}, {"measurement": "vapor pressure p", "setting": "[1]; crystalline phase, T = 281.20 K", "result": 2.90, "unit": "Pa"}, {"measurement": "vapor pressure p", "setting": "[1]; crystalline phase, T = 283.26 K", "result": 3.60, "unit": "Pa"}, {"measurement": "vapor pressure p", "setting": "[1]; crystalline phase, T = 285.16 K", "result": 4.49, "unit": "Pa"}, {"measurement": "vapor pressure p", "setting": "[1]; crystalline phase, T = 287.22 K", "result": 5.65, "unit": "Pa"}, {"measurement": "vapor pressure p", "setting": "[1]; crystalline phase, T = 289.23 K", "result": 6.93, "unit": "Pa"}, {"measurement": "vapor pressure p", "setting": "[1]; crystalline phase, T = 291.18 K", "result": 8.49, "unit": "Pa"}, {"measurement": "vapor pressure p", "setting": "[1]; crystalline phase, T = 293.07 K", "result": 10.45, "unit": "Pa"}, {"measurement": "vapor pressure p", "setting": "[1]; crystalline phase, T = 295.14 K", "result": 12.75, "unit": "Pa"}, {"measurement": "vapor pressure p", "setting": "[1]; crystalline phase, T = 297.14 K", "result": 15.67, "unit": "Pa"}, {"measurement": "vapor pressure p", "setting": "[1]; crystalline phase, T = 299.12 K", "result": 19.07, "unit": "Pa"}, {"measurement": "vapor pressure p", "setting": "[1]; crystalline phase, T = 300.99 K", "result": 23.01, "unit": "Pa"}, {"measurement": "vapor pressure p", "setting": "[1]; crystalline phase, T = 303.05 K", "result": 28.05, "unit": "Pa"}, {"measurement": "vapor pressure p", "setting": "[1]; crystalline phase, T = 305.04 K", "result": 34.26, "unit": "Pa"}, {"measurement": "vapor pressure p", "setting": "[1]; crystalline phase, T = 306.98 K", "result": 40.71, "unit": "Pa"}, {"measurement": "vapor pressure p", "setting": "[1]; crystalline phase, T = 309.01 K", "result": 49.06, "unit": "Pa"}, {"measurement": "vapor pressure p", "setting": "[1]; crystalline phase, T = 310.96 K", "result": 58.06, "unit": "Pa"}, {"measurement": "vapor pressure p", "setting": "[1]; crystalline phase, T = 312.92 K", "result": 69.28, "unit": "Pa"}, {"measurement": "vapor pressure p", "setting": "[1]; crystalline phase, T = 314.91 K", "result": 82.74, "unit": "Pa"}, {"measurement": "vapor pressure p", "setting": "[1]; liquid phase, T = 319.87 K", "result": 125.4, "unit": "Pa"}, {"measurement": "vapor pressure p", "setting": "[1]; liquid phase, T = 321.85 K", "result": 143.8, "unit": "Pa"}, {"measurement": "vapor pressure p", "setting": "[1]; liquid phase, T = 323.75 K", "result": 162.2, "unit": "Pa"}, {"measurement": "vapor pressure p", "setting": "[1]; liquid phase, T = 325.71 K", "result": 183.0, "unit": "Pa"}, {"measurement": "vapor pressure p", "setting": "[1]; liquid phase, T = 327.66 K", "result": 206.8, "unit": "Pa"}, {"measurement": "vapor pressure p", "setting": "[1]; liquid phase, T = 329.70 K", "result": 235.5, "unit": "Pa"}, {"measurement": "vapor pressure p", "setting": "[1]; liquid phase, T = 331.69 K", "result": 264.4, "unit": "Pa"}, {"measurement": "vapor pressure p", "setting": "[1]; liquid phase, T = 333.66 K", "result": 298.2, "unit": "Pa"}, {"measurement": "vapor pressure p", "setting": "[1]; liquid phase, T = 335.64 K", "result": 336.0, "unit": "Pa"}, {"measurement": "vapor pressure p", "setting": "[1]; liquid phase, T = 337.61 K", "result": 375.5, "unit": "Pa"}, {"measurement": "vapor pressure p", "setting": "[1]; liquid phase, T = 339.57 K", "result": "415.3 Pa and 416.0 Pa"}, {"measurement": "vapor pressure p", "setting": "[1]; liquid phase, T = 341.56 K", "result": 468.0, "unit": "Pa"}, {"measurement": "vapor pressure p", "setting": "[1]; liquid phase, T = 343.52 K", "result": 520.0, "unit": "Pa"}, {"measurement": "vapor pressure p", "setting": "[1]; liquid phase, T = 345.50 K", "result": 578.0, "unit": "Pa"}, {"measurement": "vapor pressure p", "setting": "[1]; liquid phase, T = 347.47 K", "result": 640.9, "unit": "Pa"}, {"measurement": "vapor pressure p", "setting": "[1]; liquid phase, T = 347.50 K", "result": 641.0, "unit": "Pa"}, {"measurement": "vapor pressure p", "setting": "[1]; liquid phase, T = 349.45 K", "result": 711.8, "unit": "Pa"}, {"measurement": "vapor pressure p", "setting": "[1]; liquid phase, T = 351.43 K", "result": 788.7, "unit": "Pa"}, {"measurement": "vapor pressure p", "setting": "[1]; liquid phase, T = 353.30 K", "result": 864.6, "unit": "Pa"}, {"measurement": "vapor pressure p", "setting": "[1]; liquid phase, T = 355.30 K", "result": 958.0, "unit": "Pa"}, {"measurement": "vapor pressure p", "setting": "[1]; liquid phase, T = 357.33 K", "result": 1058, "unit": "Pa"}, {"measurement": "vapor pressure p", "setting": "[1]; supercooled liquid, T = 305.70 K", "result": "48.17 ^d Pa"}, {"measurement": "vapor pressure p", "setting": "[1]; supercooled liquid, T = 307.91 K", "result": "56.22 ^d Pa"}, {"measurement": "vapor pressure p", "setting": "[1]; supercooled liquid, T = 309.86 K", "result": "65.09 ^d Pa"}, {"measurement": "vapor pressure p", "setting": "[1]; supercooled liquid, T = 311.92 K", "result": "75.03 ^d Pa"}, {"measurement": "vapor pressure p", "setting": "[1]; supercooled liquid, T = 313.90 K", "result": "86.06 ^d Pa"}, {"measurement": "vapor pressure p", "setting": "[1]; supercooled liquid, T = 315.83 K", "result": "96.33 ^d Pa"}, {"measurement": "vapor pressure p", "setting": "[1]; supercooled liquid, T = 317.92 K", "result": "110.0 ^d Pa"}, {"measurement": "Gibbs energy of hydration ΔhydrGm°", "setting": "[2]; calculated by Equation (4)", "result": -4.23, "unit": "kcal/mol"}, {"measurement": "log10(KHpc/kPa·m^3·mol^−1) Henry's law volatility constant", "setting": "[2]; calculated by Equation (6)", "result": "−2.71"}, {"measurement": "KHpc×10^3 Henry's law volatility constant", "setting": "[2]; value is KHpc multiplied by 10^3", "result": 1.95, "unit": "kPa·m^3·mol^−1"}, {"measurement": "pH of the saturated solution", "setting": "[3]", "result": 6.61}]}]}
